Data on 19 compounds can be found in PMC5682218 (European journal of medicinal chemistry, 2017).

The test system of one data set is P4R5 cells. The data set is described as follows: Cytotoxicity in cell-based MAGI assay. Conditions: human.
The next data set concerns the target HIV RT polymerase (pol) (Human immunodeficiency virus type 1 group M subtype B, UniProt P03366). The data set is described as follows: RT polymerase assay. The format is biochemical, HIV-1.
A further data set deals with HIV integrase (Human immunodeficiency virus type 1 group M subtype B, UniProt P03366). Briefly: HIV IN assay. The format is biochemical.
The target in data set [1] is HIV RT-associated RNase H (Human immunodeficiency virus type 1 group M subtype B, UniProt P03366). Briefly: RNH assay: HIV RT-associated RNase H inhibition, HTS-1 RNA/DNA substrate. Type of data set: biochemical, HIV-1.
Data set [2] can be described thus: Cytotoxicity in cell-based MAGI assay. The note with it: human, P4R5 indicator cells (MAGI assay).
Another data set concerns HIV-1. The data set is described as follows: MAGI antiviral assay in P4R5 indicator cells. Conditions: Human immunodeficiency virus 1, read-out: MAGI Antiviral EC50. The format is cell-based.
The mark [3] stands for this setting: read-out: RT IC50 Pol, concentration inhibiting the target enzyme by 50%.
[4] abbreviates: concentration inhibiting the target enzyme by 50%.

Structures can show the parent of a compound that is named as a salt. Where two headings read alike, the source gives them in different places. Where only a bound is given, the exact number is not on record here.

As to “3-Hydroxy-1,5,6,7-tetrahydro-2H-cyclopenta[4, 5]thieno[2,3-d]pyrimidine-2,4(3H)-dione [Compound 11i]”, in the data set on P4R5 cells, the CC50 is > 100 µM. Also, the IC50 at HIV RT polymerase (pol) (setting [3]) was > 10 µM.
For the compound “3-Hydroxy-5,6,7,8-tetrahydrobenzo[4, 5]thieno[2,3-d]pyrimidine-2,4(1H,3H)-dione [Compound 11j]”, the CC50 in the data set on P4R5 cells was > 100 µM. In addition, the concentration for half-maximal inhibition (IC50) at HIV RT polymerase (pol) (setting [3]) is > 10 µM.
As to `O=c1[nH]c2cc(-c3ccccc3)ccc2c(=O)n1O` [Compound 9a, 3-Hydroxy-7-phenylquinazoline-2,4(1H,3H)-dione], the “fold decrease in INST inhibition” value at HIV integrase (vs. compound 14) is on record as 5.5 fold. Further, the “fold increase in RNase H inhibition” value in data set [1] (vs. compound 14) amounted to 6.5 fold. In addition, the half-maximal inhibitory concentration (IC50) at HIV RT polymerase (pol) is > 10 µM.
Take `O=c1[nH]c2cc(-c3ccc(Cl)cc3)ccc2c(=O)n1O` [Compound 9b, 7-(4-Chlorophenyl)-3-hydroxyquinazoline-2,4(1H,3H)-dione]: at HIV RT polymerase (pol), the IC50 was > 10 µM.
In the case of `O=c1[nH]c2cc(-c3ccccc3)sc2c(=O)n1O` [Compound 10a, 3-Hydroxy-6-phenylthieno [3,2-d]pyrimidine-2,4(1H,3H)-dione], the values for the IC50 (in data set [1]; against HIV RT polymerase (pol)) were 0.1 ± 0.06 µM and > 10 µM, respectively. Further, at HIV RT polymerase (pol) (setting [4]), the “RT IC50 Pol” value is listed as “no RT pol inhibition”.
With `O=c1[nH]c2cc(-c3ccc(F)cc3)sc2c(=O)n1O` [Compound 10b, 6-(4-Fluorophenyl)-3-hydroxythieno[3,2-d]pyrimidine-2,4(1H,3H)-dione], the IC50 on HIV RT polymerase (pol) was > 10 µM.
Take `O=c1[nH]c2cc(-c3ccc(Cl)cc3)sc2c(=O)n1O` [Compound 10c, 6-(4-Chlorophenyl)-3-hydroxythieno[3,2-d]pyrimidine-2,4(1H,3H)-dione]: the IC50 against HIV RT polymerase (pol) was > 10 µM.
`O=c1[nH]c2sc(-c3ccccc3)cc2c(=O)n1O` [Compound 11a, 3-Hydroxy-6-phenylthieno[2,3-d]pyrimidine-2,4(1H,3H)-dione]: the IC50 against HIV RT polymerase (pol) was > 10 µM.
Regarding `O=c1[nH]c2sc(Cc3ccccc3)cc2c(=O)n1O` [Compound 11b, 6-Benzyl-3-hydroxythieno[2,3-d]pyrimidine-2,4(1H,3H)-dione], at HIV RT polymerase (pol), the IC50 is > 10 µM.
Regarding `O=c1[nH]c2scc(-c3ccccc3)c2c(=O)n1O` [Compound 11c, 3-Hydroxy-5-phenylthieno[2,3-d]pyrimidine-2,4(1H,3H)-dione], the IC50 in data set [1] was 0.1 ± 0.03 µM; against HIV RT polymerase (pol), > 10 µM.
`O=c1[nH]c2scc(-c3ccc(Cl)cc3)c2c(=O)n1O` [Compound 11d, 5-(4-Chlorophenyl)-3-hydroxythieno[2,3-d]pyrimidine-2,4(1H,3H)-dione]: on HIV RT polymerase (pol), the IC50 is > 10 µM. For the same compound, the “RT IC50 Pol” value on HIV RT polymerase (pol) (setting [4]) is on record as “did not inhibit RT polymerase”.
On to `O=c1[nH]c2sccc2c(=O)n1O` [Compound 11e, 3-Hydroxythieno[2,3-d]pyrimidine-2,4(1H,3H)-dione], for which the 50% inhibitory concentration (IC50) against HIV RT polymerase (pol) was > 10 µM.
Consider `Cc1csc2[nH]c(=O)n(O)c(=O)c12` [Compound 11f, 3-Hydroxy-5-methylthieno[2,3-d]pyrimidine-2,4(1H,3H)-dione], for which the IC50 was 0.1 ± 0.02 µM in data set [1] and > 10 µM on HIV RT polymerase (pol).
With `Cc1sc2[nH]c(=O)n(O)c(=O)c2c1C` [Compound 11g, 3-Hydroxy-5,6-dimethylthieno[2,3-d]pyrimidine-2,4(1H,3H)-dione], the IC50 was 0.1 ± 0.03 µM in data set [1] and > 10 µM against HIV RT polymerase (pol).
Consider `Cc1c(C(=O)O)sc2[nH]c(=O)n(O)c(=O)c12` [Compound 11h, 3-Hydroxy-5-methyl-2,4-dioxo-1,2,3,4-tetrahydrothieno[2,3-d]pyrimidine-6-carboxylic acid], for which the IC50 is 0.1 ± 0.02 µM in data set [1] and > 10 µM on HIV RT polymerase (pol).
With `CCN1CCc2c(sc3[nH]c(=O)n(O)c(=O)c23)C1` [Compound 11k, 7-Ethyl-3-hydroxy-5,6,7,8-tetrahydropyrido[4′,3′:4,5]thieno[2,3-d]pyrimidine-2,4(1H,3H)-dione hydrochloride], the CC50 at 72 h in data set [2] was > 100 µM. Further, the IC50 against HIV integrase is > 100 µM; in data set [1] it was 0.2 ± 0.03 µM; against HIV RT polymerase (pol) it was > 10 µM. The EC50 in the data set on HIV-1 was > 20 µM.
With `O=c1[nH]c2sc3c(c2c(=O)n1O)CCNC3` [Compound 11l, 3-Hydroxy-5,6,7,8-tetrahydropyrido[4′,3′:4,5]thieno[2,3-d]pyrimidine-2,4(1H,3H)-dione hydrobromide], the CC50 at 72 h in data set [2] is > 100 µM. Further, the values for the IC50 (on HIV integrase; in data set [1]; against HIV RT polymerase (pol)) were 17 ± 3 µM, 0.3 ± 0.03 µM and > 10 µM, respectively. In the data set on HIV-1, the EC50 is > 20 µM.
Turning to `O=c1[nH]c2sc3c(c2c(=O)n1O)CCN(Cc1ccccc1)C3` [Compound 11m, 7-Benzyl-3-hydroxy-5,6,7,8-tetrahydropyrido[4′,3′:4,5]thieno[2,3-d]pyrimidine-2,4(1H,3H)-dione hydrochloride], in data set [2], the cytotoxic concentration (CC50) at 72 h is > 100 µM. For the same compound, the IC50 against HIV integrase is 8.3 ± 0.8 µM; in data set [1], 0.1 ± 0.04 µM; against HIV RT polymerase (pol) it was > 10 µM. Further, the EC50 in the data set on HIV-1 was > 20 µM.
Regarding `O=C1Cc2cc(-c3ccccc3)ccc2C(=O)N1O` [Compound 14, 2-Hydroxy-6-phenylisoquinoline-1,3(2H,4H)-dione], the IC50 at HIV RT polymerase (pol) was > 10 µM. The “RT IC50 Pol” value on HIV RT polymerase (pol) (setting [4]) was “without inhibiting RT pol”.

As a reminder, the CC50 is the concentration giving 50% cytotoxicity. A low value points to greater toxicity to the cells. A word on the IC50: it is the point on the concentration scale where inhibition reaches its midpoint. Usually EC50 stands for the midpoint of the concentration-response curve.
